# Data from patent US20230364051A1, “FORMULATIONS AND METHODS FOR IMPROVING AVIAN HEALTH” (CORNELL UNIVERSITY, priority 2022, published 2023).
# Marks after values point to notes of the source that are not given here.
# Assays:
# ZIP6 = assay: Duodenal gene expression by RT-qPCR: ZIP6; format: in vivo, Gallus gallus; conditions: 2.5 wt. % genistein vs all other treatment groups, p < 0.05; duodenum
# Description: (§1) Cornish-cross fertile broiler eggs (Gallus gallus, n = 39) were obtained from a commercial hatchery (Moyer’s chicks, Quakertown, PA, USA). The eggs were incubated under optimal conditions at the Cornell University Animal Science Poultry Farm Incubator [18]. All animal protocols were approved by Cornell University Institutional Animal Care and Use committee (IACUC #2020-0077). At day 17 of embryonic incubation, eggs containing viable embryos were weighed and divided into 5 groups, with all treatment groups assigned eggs of similar weight frequency distribution. Each group was then injected with the specific solution (1 mL per egg) with a 21-gauge needle into the amniotic fluid. Treatments in powder form were separately diluted in DI H2O. […]
# (§2) Total RNA was extracted from 30 mg of the proximal duodenal (n=6) or liver tissues (n=6) using Qiagen RNeasy Mini Kit (Qiagen Inc., Valencia, CA) according to the manufacturer’s protocol. […] RNA was quantified by absorbance at 260-280 nm using a NanoDrop 2000 (ThermoFisher Scientific, Waltham, MA). […]
# (§3) As previously described. cDNA was generated using a 20 uL reverse transcriptase (RT) reaction in a BioRad C1000 touch thermocycler using the Improm-II Reverse Transcriptase Kit (Catalog #A1250; Promega, Madison, WI, USA). […] Genomic DNA contamination was assessed using a RT-PCR assay for the reference of genes samples. […]
# DcytB = assay: Duodenal gene expression by RT-qPCR: DcytB; format: in vivo, Gallus gallus; conditions: genistein treatment groups vs no injection, H2O and inulin, p < 0.05; duodenum
# Description: as §1, §2, §3
# [1] = maternal intake perinatally and throughout pregnancy, mice; cited from earlier work
# hepcidin = conditions: human hepatocytes; cited from earlier work
# [2] = tested on: cecal microbiota pathways; assay: Cecal 16S rRNA gene sequencing, LEfSe analysis; format: in vivo, Gallus gallus; conditions: genistein treatment; cecal contents
# Description: Cornish-cross fertile broiler eggs (Gallus gallus, n = 39) were obtained from a commercial hatchery (Moyer’s chicks, Quakertown, PA, USA). The eggs were incubated under optimal conditions at the Cornell University Animal Science Poultry Farm Incubator [18]. All animal protocols were approved by Cornell University Institutional Animal Care and Use committee (IACUC #2020-0077). At day 17 of embryonic incubation, eggs containing viable embryos were weighed and divided into 5 groups, with all treatment groups assigned eggs of similar weight frequency distribution. Each group was then injected with the specific solution (1 mL per egg) with a 21-gauge needle into the amniotic fluid. Treatments in powder form were separately diluted in DI H2O. Two treatment groups (1.25, 2.5 wt. %), two controls (H2O and non-injected), and a positive control (5 wt. % inulin) were administered. After injection, the injection holes were sealed with cellophane tape and the eggs were placed in hatching baskets such that each treatment was equally represented at each incubator location. Immediately upon hatch (day 21), blood was taken for hemoglobin determination and all chicks were then euthanized by CO2 exposure. The small intestine, pectoral muscle, cecum, and liver were collected, immediately frozen in liquid nitrogen, and then stored in a -80° C. freezer until analysis. […]
# DMT1 = assay: Duodenal gene expression by RT-qPCR: DMT1; format: in vivo, Gallus gallus; conditions: 1.25 wt. % genistein vs no injection and H2O controls, p < 0.05; duodenum
# Description: as §1, §2, §3
# [3] = tested on: gut bacterial populations; conditions: mice fed a high fat diet; cited from earlier work
# [4] = Body weight and cecum weight at hatch after intraamniotic administration; format: in vivo, Gallus gallus; conditions: for Average Body Weight / Average Cecum Weight: day 17, at hatch
# Description: Cornish-cross fertile broiler eggs (Gallus gallus, n = 39) were obtained from a commercial hatchery (Moyer’s chicks, Quakertown, PA, USA). The eggs were incubated under optimal conditions at the Cornell University Animal Science Poultry Farm Incubator [18]. All animal protocols were approved by Cornell University Institutional Animal Care and Use committee (IACUC #2020-0077). At day 17 of embryonic incubation, eggs containing viable embryos were weighed and divided into 5 groups, with all treatment groups assigned eggs of similar weight frequency distribution. Each group was then injected with the specific solution (1 mL per egg) with a 21-gauge needle into the amniotic fluid. Treatments in powder form were separately diluted in DI H2O. Two treatment groups (1.25, 2.5 wt. %), two controls (H2O and non-injected), and a positive control (5 wt. % inulin) were administered. After injection, the injection holes were sealed with cellophane tape and the eggs were placed in hatching baskets such that each treatment was equally represented at each incubator location. Immediately upon hatch (day 21), blood was taken for hemoglobin determination and all chicks were then euthanized by CO2 exposure. The small intestine, pectoral muscle, cecum, and liver were collected, immediately frozen in liquid nitrogen, and then stored in a -80° C. freezer until analysis.
# [5] = 1.25 wt. % genistein intraamniotic
# [6] = 2.5 wt. % genistein intraamniotic
compound,measurement,setting,value
"O=c1c(-c2ccc(O)cc2)coc2cc(O)cc(O)c12 [Genistein, genistein]",Gene expression of ZIP6,ZIP6,significantly downregulated
same,Gene expression of DcytB,DcytB,significantly downregulated
same,Harmful effects of a high-fat fed diet in dams and offspring,[1],mitigated
same,Hepcidin transcription levels and promoter activity,hepcidin,increased
same,Pathways associated with de novo synthesis of vitamin B12 (LEfSe),[2],enriched
same,Gene expression of DMT1,DMT1,downregulated
same,Gut bacterial populations associated with decreasing levels of lipopolysaccharide,[3],increased
same,Average Body Weight,[4]; [5],45.83 ± 0.99 ^ab g
same,Average Cecum Weight,[4]; [5],0.50 ± 0.04 ^ab g
same,Average Body Weight,[4]; [6],47.69 ± 1.30 ^a g
same,Average Cecum Weight,[4]; [6],0.44 ± 0.03 ^b g
same,Body weight vs control,"[4]; 2.5 wt. % genistein vs non-injected group, p < 0.05",significantly higher
same,Cecum weight of no injection and H2O groups compared to treated group,"[4]; 2.5 wt. % genistein, p < 0.05",significantly greater values
